Results on 14 compounds are retold here after PubChem BioAssay (NCI).

Holding throughout (test): NCI anticancer screen, dose series, 48 h
Experiment [1] concerns A549 NSCLC.
In experiment [2] the test system is HOP-92 NSCLC.
The test system of experiment [3] is IGROV1 ovarian.
Experiment [4] concerns NCI-H460 lung.
Experiment [5] deals with PC-3 prostate.
Experiment [6] concerns SK-MEL-28 melanoma.
In experiment [7] the test system is SR leukemia.
Experiment [8] deals with SW-620 colon.
The test system of experiment [9] is TK-10 renal.
Experiment [10] deals with HL-60(TB) leukemia.

Values joined by “and” are separate entries in the source; they are usually repeats but may differ in a detail not shown here. Equal entries are not always repeated.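 Briefly, cells in 96-well plates were exposed to five compound concentrations for 48 h, and endpoints were estimated by linear interpolation. At the GI50, growth is halved. Definition used: TGI = concentration required for complete inhibition of growth.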 *1 amine or outer side, *2 acyl side, *3 side chain or, on linkers, in order; H or OH if unused. Where a SMILES comes first, the peptide text is derived from it. [ ]: non-standard residue; d: D form. The star is where a group is joined. X12 = NCCCCC(N[*:1])C(=O)CN1CCCC1C(=O)[*:2]; Pentadecanoyl = CCCCCCCCCCCCCCC(=O)*

Take `Cc1cc(C)c(N)c(CO)c1`: the TGI in [1] is above 100 µM; in experiment [2] it was above 100 µM; in [3], 33.3 µM and 46.9 µM; in experiment [4], above 100 µM; in experiment [5], above 100 µM; in [6], above 100 µM. Also, the TGI in [7] is above 100 µM; in [8] it was above 100 µM; in experiment [9], 18.7 µM and > 38.5 µM. Also, the GI50 was 4.25 µM and 10.2 µM in experiment [3]; 2.61 µM and 6.9 µM in [9].

Take `Cc1cnc2[nH]c(-c3sccc3C)cc(=O)c2c1`: the TGI in experiment [1], in experiment [2], in experiment [3], in experiment [4], in experiment [5] and in experiment [6] was above 100 µM throughout. In addition, the TGI in [7], in [8] and in [9] was above 100 µM each time.

Turning to `Cc1cc(S(=O)(=O)Nc2n[nH]c(N)n2)c(S)cc1Cl`, the TGI in experiment [1], in experiment [10], in [3], in experiment [4], in experiment [5] and in experiment [6] was above 10 µM throughout. Also, the TGI in [8] and in experiment [9] was above 10 µM throughout.

Take `CC(C)(C)C1=CC(O)(c2c3ccccc3c(C3(O)C=C(C(C)(C)C)C(=O)C(C(C)(C)C)=C3)c3ccccc23)C=C(C(C)(C)C)C1=O`: the TGI in experiment [1] is above 100 µM; in experiment [2], 0.028 µM; in experiment [3], above 100 µM; in experiment [5], above 100 µM; in experiment [6], above 100 µM; in [8] it was above 100 µM. For the same compound, the TGI in experiment [9] was above 100 µM.

With `CC(=O)c1nc(C#N)c(N)o1`, the TGI in experiment [1], in [2], in [3], in [4], in [5] and in experiment [6] was above 100 µM in each case. The TGI in [8] and in experiment [9] was above 100 µM each time.

As to `Oc1[nH]c2ccccc2c1N=NC(=S)NCc1ccccn1`, the TGI was 13.7 µM in experiment [1]; 18.1 µM in experiment [2]; 13.9 µM in experiment [3]; 11.4 µM in experiment [4]; 17.5 µM in experiment [5]; 21.5 µM in experiment [6]. The TGI in experiment [8] came out at 22.3 µM; in [9], 18.3 µM.

Regarding `COc1cc(C)c(S(=O)(=O)N(CCCN)OCCCN)c(C)c1C`, the TGI in [1] is above 100 µM; in experiment [3], above 100 µM; in experiment [4], above 100 µM; in experiment [5] it was 77.3 µM; in experiment [6] it was above 100 µM; in [7] it was 38.6 µM. Further, the TGI in experiment [8] and in experiment [9] was above 100 µM each time.

For `CC(=O)OCC12C(OC(C)=O)C[C@@H](C)C3(CC(c4ccoc4)OC3=O)C1CCC(OC(C)=O)C21CO1` (some centres not stated), the TGI in [1], in experiment [10], in [2], in experiment [3], in experiment [4] and in experiment [5] was above 100 µM throughout. The TGI in experiment [6], in experiment [8] and in experiment [9] was above 100 µM each time.

On to `CCCCCCCCCCCCCCC(=O)NC(CCCCN)C(=O)CN1CCCC1C(=O)NCC(=O)NC(Cc1ccccc1)C(=O)N1CCCC1C(=O)NC(CO)C(=O)NC(Cc1ccc(O)cc1)C(=O)NC(CCCCN)C(=O)NC(CC(C)C)C(=O)NC(CCCN=C(N)N)C(=O)N1CCCC1C(=O)NCC(N)=O` (configuration not stated) (Pentadecanoyl-[X12]GFPSYKLRPG-NH2; configuration not given here), for which the GI50 is 23.7 µM in [1]; 27.3 µM in experiment [10]; 15.9 µM in experiment [2]; 19.5 µM in experiment [3]; 28.3 µM in [4]; 25.7 µM in experiment [6]. The results for the GI50 in experiment [7], in experiment [8] and in experiment [9] were 16.2 µM, 29.9 µM and 11.7 µM, respectively. The TGI in [1] amounted to 47.6 µM; in [10], 90.8 µM; in [2], 37.4 µM; in experiment [3], 57.3 µM; in experiment [4] it was 83.7 µM; in experiment [6], 60.6 µM. Moreover, the TGI in experiment [7] came out at 50.8 µM; in experiment [8], 80.9 µM; in [9], 32.9 µM.

For `N#Cc1c(NC(=S)Nc2ccccc2)sc2c1CCCC2`, the TGI in experiment [10], in [3], in [4], in experiment [5], in [6] and in experiment [7] was above 100 µM throughout. For the same compound, the TGI in experiment [8] and in [9] was above 100 µM in each case.

As to `Cc1nc2ccccc2nc1N1CCCC1`, the TGI in [1], in experiment [2], in experiment [3], in [4], in [5] and in [6] was above 100 µM each time. The TGI in experiment [7], in experiment [8] and in experiment [9] was above 100 µM each time.

In the case of `O=C(c1cccs1)N(C(=O)N1CCCCC1)c1ccccc1`, the TGI in experiment [10], in experiment [3], in experiment [5], in [6], in [8] and in experiment [9] was above 100 µM each time.

For `Cc1cccc2c1C(=O)/C(=C/c1ccccc1C(=O)O)C2`, the TGI in experiment [1], in [10], in experiment [2], in [3], in experiment [4] and in experiment [5] was above 100 µM throughout. Also, the TGI in experiment [6], in [8] and in experiment [9] was above 100 µM throughout.

`CC1=CCC(=O)[C@]2(C)C(CC(=O)O)[C@]3(C)C4=C(C)C(c5ccoc5)C[C@@H]4O[C@@H]3[C@H](O)[C@@H]12` (some centres not stated): the TGI in experiment [1], in experiment [10], in [2], in experiment [3], in [4] and in [5] was above 100 µM in each case. The TGI in experiment [6], in experiment [8] and in [9] was above 100 µM in each case.
